In patent US20080039434A1, “Treatment of Interstitial Cystitis with Vitamin D Compounds” (BioXell S. p.A., priority 2004, published 2008):
“And” between values parts separate entries of the source, which are not always exact repeats. Equal entries are not always repeated.

System: rat bladders (CYP-induced cystitis)
Test: Histological analysis of rat bladders from the CYP cystitis experiment
Type: in vivo
Procedure: Rat bladders from the experiments of Example 1 were fixed in formalin, embedded in paraffin and stained with hematoxylin and eosin by methods known in the art.
Histopathological examination was performed on at least 10 sections per bladder. Different inflammatory parameters were considered:
infiltration of inflammatory cells (mostly lymphocytes and monocytes)
and were scored as follows: 0=normal without any sign of inflammation, 1=mild, 2=moderate, 3=severe, 4=severe signs diffused across all of the section.
Table 3 refers to vehicle treated animals and Table 4 to “Compound A” treated animals. Each inflammatory parameter was scored from 0 to 4, where 0 is normal and 4 the most severe symptom.

[1] = individual rats, score 0 (normal) to 4 (most severe), Compound A 0.1 μg/kg oral 14 days
[2] = mean of 4 Compound A treated rats, score 0-4

`CC(=O)OC1C/C(=C/C=C2\CCC[C@]3(C)C(C(C)C/C=C\C(O)(C(F)(F)F)C(F)(F)F)=CCC23)C[C@@H](OC(C)=O)C1` (stereo partly shown) [Compound A, 1,3-Di-O-acetyl-1,25-dihydroxy-16,23Z-diene-26,27-hexafluoro-19-nor-cholecalciferol] was tested, and the “EPITHELIAL EROSION histological score” value [1] was 0, the FIBROSIS histological score [1] was 0 and the HEMOSTASIS histological score [1] was 0 and 1 and 0.5 (2×). The INFILTRATION histological score [1] was 0.5 (2×) and 1 and 2, the EDEMA histological score (individual rats, score 0 normal, 1 mild, 2 moderate, 3 severe, 4 severe diffused, Compound A 0.1 μg/kg oral 14 days) was 0.5 and 0 (2×) and 2 and the “EDEMA histological score, MEAN” value [2] was 0.63. For the same molecule, the “EPITHELIAL EROSION histological score, MEAN” value [2] was 0, the “FIBROSIS histological score, MEAN” value [2] was 0 and the “HEMOSTASIS histological score, MEAN” value [2] was 0.5. The “INFILTRATION histological score, MEAN” value [2] was 1.
